Test systems include A549 NSCLC; DU-145 prostate; HS 578T breast; MDA-MB-435; OVCAR-8 ovarian; SF-268 CNS; SF-295 CNS; SW-620 colon; UACC-257 melanoma; UO-31 renal.
Holding throughout (test): NCI tumour cell line growth inhibition, 48 h

Values joined by “and” are separate entries in the source; they are usually repeats but may differ in a detail not shown here. Identical values can stand only once.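 Assay format: 96-well plates, 48-hour exposure. Abbreviation: GI50, concentration required for 50% inhibition of growth. The concentration for full growth arrest is given as TGI.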

Turning to `CC(C)(C)C[C@H]1N[C@@H](C(=O)NC2CCC(O)CC2)[C@H](c2cccc(Cl)c2F)[C@@]12C(=O)Nc1cc(Cl)ccc12` (stereo partly drawn), the GI50 is 0.778 µM with A549 NSCLC; 11.8 µM in the assay on DU-145 prostate; 6.51 µM in the assay with HS 578T breast; 4.8 µM in the assay with MDA-MB-435; 14.8 µM in the assay on OVCAR-8 ovarian; 12 µM with SF-268 CNS. The GI50 is 3.46 µM in the assay with SF-295 CNS, 12.3 µM in the assay with SW-620 colon, 1.16 µM in the assay with UACC-257 melanoma and 0.646 µM in the assay on UO-31 renal. Moreover, the TGI in the assay on A549 NSCLC came to 16.4 µM; in the assay on DU-145 prostate, 24.3 µM; with HS 578T breast, 56.8 µM; in the assay with MDA-MB-435 it was 16.6 µM; in the assay with OVCAR-8 ovarian, 39.4 µM; in the assay on SF-268 CNS, 25.8 µM. Further, the TGI was found to be 13.6 µM in the assay with SF-295 CNS, 29.4 µM in the assay with SW-620 colon, 13.7 µM with UACC-257 melanoma and 11.1 µM with UO-31 renal.
Turning to `COc1ccc(-n2cc(-c3ccc(OC)c(OC)c3)[nH]c2=O)cc1`, the GI50 in the assay with A549 NSCLC, with DU-145 prostate, in the assay on HS 578T breast, with MDA-MB-435, in the assay with SF-268 CNS and in the assay with SF-295 CNS was greater than 100 µM throughout. Also, the GI50 in the assay with SW-620 colon and in the assay with UO-31 renal was greater than 100 µM in each case. Moreover, the TGI in the assay with A549 NSCLC, in the assay on DU-145 prostate, in the assay on HS 578T breast, with MDA-MB-435, in the assay on SF-268 CNS and with SF-295 CNS was greater than 100 µM throughout. For the same molecule, the TGI with SW-620 colon and in the assay with UO-31 renal was greater than 100 µM in each case.
Consider `CCCCCCCC(=O)OCC/C=C/C1OC1C1OC(=O)/C=C\C=C\C(=O)N(C(C)=O)C(=O)/C=C(/C)CCC2OC2C1OC(=O)NC(C)=O` (stereo not drawn), for which the GI50 in the assay on A549 NSCLC is 21.6 µM; with DU-145 prostate it was 4.45 µM; in the assay with HS 578T breast it was 5.22 µM; in the assay with MDA-MB-435 it was 5.85 µM; with OVCAR-8 ovarian it was 3.64 µM; with SF-268 CNS it was 4.6 µM. Also, the GI50 in the assay on SF-295 CNS is 2.16 µM; in the assay on SW-620 colon it was 6.42 µM; in the assay on UACC-257 melanoma it was 9.38 µM; in the assay with UO-31 renal, 1.82 µM. The TGI in the assay with A549 NSCLC was greater than 25 µM; in the assay on DU-145 prostate, 16.2 µM; in the assay with HS 578T breast, 15.8 µM; with MDA-MB-435 it was 24.8 µM; in the assay on OVCAR-8 ovarian it was 16.6 µM; with SF-268 CNS it was 12.1 µM. Besides, the TGI in the assay with SF-295 CNS was 9.9 µM; in the assay with SW-620 colon it was 24 µM; in the assay with UACC-257 melanoma, greater than 25 µM; with UO-31 renal it was 10.8 µM.
Consider `[N-]=[N+]=CC(=O)CCC(N)C(=O)O` (stereo not drawn), for which the GI50 in the assay on A549 NSCLC was 2.78 µM; in the assay with DU-145 prostate, 5.58 µM; with HS 578T breast, 42.2 µM; with MDA-MB-435 it was 7.2 µM; in the assay with OVCAR-8 ovarian it was 7.03 µM; with SF-268 CNS it was 1.65 µM. Moreover, the GI50 is 12.6 µM with SW-620 colon, 78.5 µM with UACC-257 melanoma and 8.31 µM in the assay with UO-31 renal. Moreover, the TGI in the assay with A549 NSCLC is greater than 250 µM; in the assay with DU-145 prostate, greater than 250 µM; with HS 578T breast, greater than 250 µM; with MDA-MB-435 it was greater than 250 µM; in the assay on OVCAR-8 ovarian, greater than 218 µM; in the assay with SF-268 CNS, 190 µM. Besides, the TGI in the assay with SF-295 CNS was greater than 250 µM; in the assay with SW-620 colon, greater than 250 µM; in the assay with UACC-257 melanoma, greater than 250 µM; in the assay with UO-31 renal, 219 µM.
For the molecule `O=c1[nH]c(C2CCCN2)nc2c1oc1ccc(Cl)cc12` (stereo not drawn), the GI50 in the assay with A549 NSCLC is greater than 100 µM; with DU-145 prostate, greater than 100 µM; in the assay on HS 578T breast it was 28.3 µM; with MDA-MB-435 it was greater than 100 µM; in the assay with OVCAR-8 ovarian, greater than 100 µM; with SF-268 CNS, greater than 100 µM. Further, the GI50 in the assay with SF-295 CNS is greater than 72.3 µM; with SW-620 colon it was 49.4 µM; with UACC-257 melanoma it was 54.8 µM; with UO-31 renal, 26.9 µM. Besides, the TGI with A549 NSCLC, in the assay with DU-145 prostate, with HS 578T breast, with MDA-MB-435, in the assay on OVCAR-8 ovarian and with SF-268 CNS was greater than 100 µM in each case. Besides, the TGI in the assay with SF-295 CNS, in the assay with SW-620 colon, in the assay on UACC-257 melanoma and in the assay with UO-31 renal was greater than 100 µM throughout.
With `Cn1c(COC(=O)NCCn2ccnc2)nc2c(N3CCOCC3)nc(-c3ccccc3)nc21`, the GI50 was 1.43 µM in the assay with A549 NSCLC; 0.888 µM in the assay with DU-145 prostate; 1.06 µM with HS 578T breast; 0.694 µM with MDA-MB-435; 0.913 µM in the assay on OVCAR-8 ovarian; 1.29 µM in the assay with SF-268 CNS. Besides, the GI50 in the assay on SF-295 CNS is 1.54 µM; in the assay on SW-620 colon, 0.226 µM; with UACC-257 melanoma, 1.28 µM; with UO-31 renal, 0.441 µM. The TGI came to 3.38 µM with A549 NSCLC; 2.13 µM in the assay with DU-145 prostate; 3.59 µM in the assay with HS 578T breast; 2.08 µM in the assay on MDA-MB-435; 2.63 µM in the assay with OVCAR-8 ovarian; 2.66 µM in the assay with SF-268 CNS. Moreover, the TGI with SF-295 CNS stood at 2.89 µM; with SW-620 colon, 0.58 µM; in the assay with UACC-257 melanoma, 2.86 µM; with UO-31 renal, 1.74 µM.
Turning to `C[C@@H]1C[C@@H]([C@H](O)CC2CC(=O)NC(=O)C2)C(=O)[C@@H](C)C1`, the GI50 in the assay with A549 NSCLC was 0.204 µM; with DU-145 prostate, 0.247 µM; with HS 578T breast, 0.488 µM; in the assay on MDA-MB-435, 0.233 µM; in the assay with OVCAR-8 ovarian, 0.202 µM; in the assay on SF-268 CNS, 0.264 µM. The GI50 is 0.176 µM in the assay with SF-295 CNS, 0.219 µM in the assay on SW-620 colon, 0.248 µM in the assay on UACC-257 melanoma and 0.23 µM in the assay on UO-31 renal. The TGI with A549 NSCLC was 1.76 µM and 1.73 µM; with MDA-MB-435, 4.09 µM; with OVCAR-8 ovarian, 1.7 µM and 1.27 µM; in the assay on SF-268 CNS, 1.94 µM; in the assay on SF-295 CNS it was 1.19 µM and 1.69 µM; with SW-620 colon, 1.23 µM. The TGI in the assay with UACC-257 melanoma was 1.65 µM and 1.03 µM; in the assay with UO-31 renal it was 4.63 µM and 0.675 µM.
